Experimental data reported in patent publication US20250325565A1, “ERAVACYCLINE FOR TREATING CANCER” (B. G. NEGEV TECHNOLOGIES AND APPLICATIONS LTD., priority 2022, published 2025).

Assays:
[1] = test system: Panc-1 scr, Panc-1 p53-R273H knock-out (KO) cell lines; assay: XTT cell proliferation assay, Panc-1 cell lines; assay type: cell-based, human; conditions: 72 h, 1-50 μM
Protocol: Human PDAC (AsPC-1, BxPC-3, Panc-1 scr, Panc-1 p53-R273H knock-out (KO) hTERT-HPNE), breast (MCF-7), lung (A549), and colon (HT-29) cancer cell lines were purchased from the American Type Culture Collection (ATCC). The MCF-7, A549, Panc-1 scr, Panc-1 p53 KO and HT-29 cell lines were grown in Dulbecco's Modified Eagle Medium (DMEM; Biological Industries, Beit HaEmek (BI), Israel), and the BxPC-3 and AsPC-1 cell lines were cultured in Roswell Park Memorial Institute-1640 (RPMI-1640; BI, Israel) medium. All media was supplemented with 10% fetal bovine serum (FBS), 200 μM L-glutamine (BI), and 1% penicillin-streptomycin (BI). Cells were cultured at 37° C. in a 5% CO2 humidified incubator.
The XTT Cell Proliferation Assay Kit was used to determine cell viability and proliferation. Cells were seeded in 96-well plates at a density of 4,000 cells per well and allowed to attach overnight in a 5% CO2 incubator at 37° C. After overnight incubation, cells were treated with culture medium or in a medium containing tigecycline, omadacycline, or eravacycline at different concentrations (1, 2, 5, 10, 25, and 50 μM) for the indicated time period. […] After shaking the plate gently to distribute the dye in the wells, the absorbance was measured with a spectrophotometer (Bio-RadiMark Microplate Absorbance reader) at a wavelength of 450 nm and a reference wavelength of 655 nm. […]

BxPC-3 cells [2] = assay: Scratch wound healing (cell migration) assay; assay type: cell-based, human; conditions: BxPC-3, 10 μM, 0, 24, 48 and 72 hours
Protocol: BxPC-3 cells were cultured in six well plates to full confluence; then the monolayer of the cells was scratched using a 200 μl pipette tip. Subsequently, PBS was used to wash and remove floating and damaged cells, and medium alone or medium containing 10 μM eravacycline was added to the cells for further culture. Cell migration over the denuded area was observed and captured at the indicated times with a Nikon ECLIPSE Ts2 fluorescence microscope, equipped with DS-Fi3 camera. The wound closure rates were also measured at the indicated time points.
As one of the most malignant types of digestive tract cancer cells, PDAC cells have powerful migration and invasiveness capabilities. Therefore, the effect of eravacycline on cell migration abilities was investigated.

BxPC-3 cells [3] = assay: Annexin V-FITC/PI apoptosis assay by flow cytometry; assay type: cell-based, human; conditions: 72 h
Protocol: Cells were cultured in 6-well plates containing different concentrations of eravacycline, gemcitabine, or doxorubicin (medium alone was used as a control) for 72 h. Afterward, cells were collected by trypsinization for flow cytometry analysis. Cells were resuspended in 100 μl binding buffer, then stained with 5 μl propidium iodide (PI) and 5 μl Annexin V-FITC (Annexin V-FITC Apoptosis Detection Kit with PI-BioLegend) at room temperature for 20 min in the dark. Finally, the cells were collected and analyzed by FACS (Sony SP6800 Spectral cell analyzer), and the data was analyzed using SP6800 spectral analyzer software.
To examine eravacycline's effect on cell growth inhibition and the mechanism underlying this, the induction of apoptosis activated by eravacycline treatment in BxPC-3 cells was investigated by performing an Annexin V-FITC (V-fluorescein isothiocyanate) apoptosis assay. The effects of the treatment of BxPC-3 cells with increasing concentrations of eravacycline was evaluated after 72 h. A positive control of 1 μM of doxorubicin was evaluated at the same time point.

BxPC-3 xenograft tumors = assay: BxPC-3 cell xenograft tumor model; assay type: in vivo, athymic nude mice; conditions: nude mice
Protocol: Six-week-old female athymic nude mice were purchased from Envigo (Jerusalem, Israel) and housed in pathogen-free conditions and fed a standard sterilized diet. The mice were housed in humidity- and temperature-controlled conditions, and the light/dark cycle was set at 12 h intervals. The animal protocol was reviewed and approved by the Committee for the Ethical Care and Use of Animals in Research at Ben-Gurion University of the Negev, complying with the Israeli Animal Welfare Law. BxPC-3 cells (4×10^6) were injected subcutaneously into one flank of the mice. Tumor size was measured every other day based on caliper measurements of tumor length and width (volume=tumor length×width^2×0.5236). Ten days later, when tumors were palpable and reached volumes of 50-150 mm^3, the mice bearing tumors were randomly assigned to control or eravacycline groups (n=6). Treatment was administered every two days using either phosphate buffered saline (PBS), eravacycline (10 mg/kg by i.p. injection) or gemcitabine (25 mg/kg by i.p. injection) for 10 days. The tumor growth and mouse weight were measured every other day during the treatment period. After the last treatment, the mice were monitored for an additional six days, and then the experiment was terminated. The mice were then sacrificed, the tumors were excised, photographed, and measured, and the tumor tissues were snap-frozen, pending analysis.
To further assess the inhibition effect of eravacycline on human PDAC cells in vivo, BxPC-3 cells were injected subcutaneously into nude mice to establish xenograft models for in vivo experiments. The mice were randomly divided into three groups: the control group, the gemcitabine group (25 mg/kg), and the eravacycline group (10 mg/kg). Following the last administration of treatment, mice were monitored for an additional six days; then the experiment was terminated, the mice were sacrificed, and the tumors were excised, photographed, and weighed (FIGS. 6B-6D).

[4] = 10 mg/kg i.p. every two days for 10 days

- mouse weight loss vs control group (BxPC-3 xenograft tumors; [4]): no significant weight loss
Compound: CN(C)[C@@H]1C(O)=C(C(N)=O)C(=O)[C@@]2(O)C(O)=C3C(=O)c4c(O)c(NC(=O)CN5CCCC5)cc(F)c4C[C@H]3C[C@@H]12 [eravacycline, (4S,4aS,5aR,12aS)-4-(Dimethylamino)-7-fluoro-3,10,12,12a-tetrahydroxy-1,11-dioxo-9-[2-(pyrrolidin-1-yl)acetamido]-1,4,4a,5,5a,6,11,12a-octahydrotetracene-2-carboxamide]
- effect on cell viability (in words) [1]: No significant effect
- effect on cell viability (in words) ([1]; listed as Eravacycline): no toxicity was observed
- migration rate to wound vs control (BxPC-3 cells [2]): significantly lower migration rate
- increase in the number of apoptotic cells (BxPC-3 cells [3]; BxPC-3, 10 μM): three-fold
- apoptosis (BxPC-3 cells [3]; BxPC-3, 25 μM): ~70%
- tumor growth blocked (BxPC-3 xenograft tumors; [4]): 76%
- tumor volume and tumor weight compared with gemcitabine (25 mg/kg) (BxPC-3 xenograft tumors; 10 mg/kg i.p.): superior to gemcitabine treatment
